Reference: PubChem BioAssay (NCI)
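Compound exposure: 48 hours, 5 concentrations, 96-well plates. TGI marks complete inhibition of growth.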

Tests used:
Assay in all cases: DTP human tumour cell line panel, 48 h
HL-60(TB) leukemia = system: HL-60(TB) leukemia
TK-10 renal = system: TK-10 renal
NCI-H226 lung = system: NCI-H226 lung
U251 CNS = system: U251 CNS
SF-539 CNS = system: SF-539 CNS
KM12 colon = system: KM12 colon
HT29 colon = system: HT29 colon
786-0 renal = system: 786-0 renal
SF-268 CNS = system: SF-268 CNS
CAKI-1 renal = system: CAKI-1 renal
HS 578T breast = system: HS 578T breast
UACC-62 melanoma = system: UACC-62 melanoma
MCF7 breast = system: MCF7 breast
ACHN renal = system: ACHN renal
OVCAR-4 ovarian = system: OVCAR-4 ovarian
MDA-MB-435 = system: MDA-MB-435
SNB-75 CNS = system: SNB-75 CNS
OVCAR-5 ovarian = system: OVCAR-5 ovarian
NCI-H460 lung = system: NCI-H460 lung
MDA-MB-231 breast = system: MDA-MB-231 breast
HCT-116 colon = system: HCT-116 colon
SK-MEL-2 melanoma = system: SK-MEL-2 melanoma
IGROV1 ovarian = system: IGROV1 ovarian
SNB-19 CNS = system: SNB-19 CNS
LOX IMVI melanoma = system: LOX IMVI melanoma
SK-MEL-28 melanoma = system: SK-MEL-28 melanoma
UO-31 renal = system: UO-31 renal
MOLT-4 leukemia = system: MOLT-4 leukemia
A549 NSCLC = system: A549 NSCLC
NCI-H522 lung = system: NCI-H522 lung
RXF 393 renal = system: RXF 393 renal
K-562 leukemia = system: K-562 leukemia
MDA-N = system: MDA-N
PC-3 prostate = system: PC-3 prostate
MALME-3M melanoma = system: MALME-3M melanoma
BT-549 breast = system: BT-549 breast
HOP-62 NSCLC = system: HOP-62 NSCLC
CCRF-CEM leukemia = system: CCRF-CEM leukemia
M14 melanoma = system: M14 melanoma
SF-295 CNS = system: SF-295 CNS
RPMI-8226 leukemia = system: RPMI-8226 leukemia
SR leukemia = system: SR leukemia
HCC-2998 colon = system: HCC-2998 colon
UACC-257 melanoma = system: UACC-257 melanoma
SW-620 colon = system: SW-620 colon
DU-145 prostate = system: DU-145 prostate
OVCAR-3 ovarian = system: OVCAR-3 ovarian
HCT-15 colon = system: HCT-15 colon
COLO 205 colon = system: COLO 205 colon
NCI/ADR-RES ovarian = system: NCI/ADR-RES ovarian
SN12C renal = system: SN12C renal
SK-OV-3 ovarian = system: SK-OV-3 ovarian
OVCAR-8 ovarian = system: OVCAR-8 ovarian
EKVX NSCLC = system: EKVX NSCLC
SK-MEL-5 melanoma = system: SK-MEL-5 melanoma
T-47D breast = system: T-47D breast
A498 renal = system: A498 renal
NCI-H23 lung = system: NCI-H23 lung
HOP-92 NSCLC = system: HOP-92 NSCLC

Measured: TGI

Cc1ccc(N(C)S(=O)(=O)c2ccc([N+](=O)[O-])cc2)cc1
not listed: SK-MEL-5 melanoma | T-47D breast | A498 renal | NCI-H23 lung | HOP-92 NSCLC
> 100 µM: all other assays above

Cn1c(-c2ccc(/C=N/N=C/c3ccc(-c4c[n+]5ccccc5n4C)cc3)cc2)c[n+]2ccccc12
not listed: NCI-H226 lung | CAKI-1 renal | UACC-62 melanoma | SK-MEL-2 melanoma | LOX IMVI melanoma | RXF 393 renal | MALME-3M melanoma | BT-549 breast | DU-145 prostate | OVCAR-3 ovarian | A498 renal | NCI-H23 lung | HOP-92 NSCLC
> 100 µM: all other assays above

CC(=O)OC1C[C@@H](C)C2(C[C@H](O)c3ccoc3)C(=O)OC[C@]13C2CCC(O)C31CO1 (some centres not stated)
not listed: HL-60(TB) leukemia | SW-620 colon | SK-OV-3 ovarian | EKVX NSCLC | T-47D breast
> 100 µM: all other assays above

CC[C@H]1C[C@@H](O)[C@@H]2[C@H](O)[C@H](O)CN2C1
not listed: CAKI-1 renal | UACC-62 melanoma | MDA-MB-231 breast | UO-31 renal | RXF 393 renal | BT-549 breast | HOP-62 NSCLC | SR leukemia | COLO 205 colon | A498 renal | NCI-H23 lung
> 100 µM: all other assays above

CCCCCC(/C=N/Nc1ccccc1)C(O)(C(F)(F)F)C(F)(F)F (configuration not stated)
not listed: TK-10 renal | KM12 colon | MCF7 breast | BT-549 breast
> 100 µM: all other assays above
